Data published in patent US11897875B2, “Deuterated Alpha5 subunit-selective negative allosteric modulators of gamma-aminobutyric acid type a receptors as fast acting treatment for depression and mood disorders” (UNIVERSITY OF MARYLAND, BALTIMORE, priority 2017, dated 2024).

Tests used:
[1] = test system: naïve rats and rats subjected to 14 days of chronic multimodal stress; experiment: forced swim test; format: in vivo, rat; conditions: for time the animals spent immobile / latency until the animals ceased to struggle and become immobile: NCGC-43 3 mg/kg or ketamine 20 mg/kg, 24 hours after injection; for time the animals spent immobile: vs stressed animals given vehicle (FIG. 6A); for latency until the animals ceased to struggle and become immobile: vs stressed animals given vehicle (FIG. 6B)
Text: NCGC-43 and ketamine both exert an antidepressant-like response in this test. […] See also FIG. 6C and FIG. 6D.

[2] = test system: rats subjected to chronic multimodal stress; experiment: open field test; format: in vivo, rat; conditions: 3 mg/kg
Description: FIG. 4A is a schematic of the open field test. […] Behavioral measurements were made before commencing stress (baseline), immediately after 14 days of chronic multimodal stress, and 24 hours after an injection of NCGC-43 (3 mg/kg) or vehicle (DMSO solution).

[3] = metabolic stability in rat hepatocytes in vitro; format: in vitro ADME; conditions: rat liver hepatocytes
Text: (§1) Table 1, below, presents data regarding the half-life of […] in rat and human liver hepatocytes, in vitro, showing an increase in half-life for the deuterated compounds. Stability improved more in human hepatocytes compared to rat hepatocytes, with variation between the hepatocyte studies. […] Longer half-life also allows less frequent dosing. […] Deuteration preferably is located at the site of metabolism, since installing deuterium atoms at the site of metabolism more readily increases the half-life of the compound.

[4] = test system: rat liver hepatocytes; experiment: metabolic stability in rat hepatocytes in vitro; format: in vitro ADME; conditions: 3 hours
Text: as §1

[5] = test system: human liver hepatocytes; experiment: metabolic stability in human hepatocytes in vitro; format: in vitro ADME
Text: as §1

[6] = test system: rats subjected to chronic multimodal stress; experiment: sucrose preference test in rats under chronic multimodal stress; format: in vivo, rat; conditions: for sucrose preference (sucrose solution consumed as percentage of total): single injection, NCGC-43 3 mg/kg or ketamine 20 mg/kg, 24 hours, 7 days, 14 days after injection, stress continued
Description: In the sucrose preference test, rats were given an overnight two bottle choice task (in which the sucrose solution consumption is shown as a percentage of the total solution consumed) before commencing stress (baseline), immediately after 14 days of chronic multimodal stress, and 24 hours, 7 days, and 14 days after an injection of NCGC-43 (3 mg/kg, gray), ketamine (20 mg/kg, orange), or vehicle (DMSO solution, blue), all while continuing with daily chronic multimodal stress. A control group received neither stress nor drug (yellow).

[7] = test system: rats subjected to chronic multimodal stress; experiment: social interaction test in rats after chronic multimodal stress; format: in vivo, rat; conditions: single injection, NCGC-43 3 mg/kg or ketamine 20 mg/kg; 24 hours after injection
Description: […] In the social interaction test, rats were given a choice between spending time in a chamber with a novel caged juvenile rat and a chamber with an empty cage before commencing stress (baseline), immediately after 14 days of chronic multimodal stress, and 24 hours after an injection of NCGC-43 (3 mg/kg, gray), ketamine (20 mg/kg, orange), or vehicle (DMSO solution, blue). Social interaction computed as percent time spent with the novel animal. A control group received neither stress nor drug (yellow).

[8] = as a nootropic; cited from earlier work
[9] = metabolic stability in human hepatocytes in vitro; format: in vitro ADME; conditions: human liver hepatocytes; human hepatocytes in vitro
Text: as §1

[10] = test system: rats subjected to chronic multimodal stress; experiment: elevated plus maze; format: in vivo, rat; conditions: NCGC-43 3 mg/kg or ketamine 20 mg/kg; 24 hours after injection
Description: In the elevated plus maze, rats were given a choice between spending time in one of two arms of an elevated cross-shaped maze (one arm closed and the other arm open), immediately after 14 days of chronic multimodal stress, and 24 hours after an injection of NCGC-43 (3 mg/kg) or ketamine (20 mg/kg). A control group was unstressed and received a vehicle injection (DMSO).

SMILES | time course of effect (responses at 1 hour and 24 hours) ([1]; 3 mg/kg, 1 hour vs 24 hours after injection) | time the animals spent immobile [1] | latency until the animals ceased to struggle and become immobile [1] | latency to immobility, dose-response ([1]; intraperitoneal, increasing doses, 1 or 24 hours after injection (FIG. 7)) | overall locomotor activity ([2]; 24 hours after injection (FIG. 4B)) | time spent in the corners and sides ([2]; 24 hours after injection (FIG. 4C)) | ratio of time spent in the center of the chamber to time spent in the corners/sides ([2]; 24 hours after injection (FIG. 4D)) | latency before the animals first entered the center of the chamber ([2]; 24 hours after injection (FIG. 4E)) | half-life [3] | Percentage Remaining at 3 Hours [4] | Half-life (hours) ([5]; human hepatocytes in vitro) | Percentage Remaining at 3 Hours ([5]; human hepatocytes in vitro) | metabolic stability compared with non-deuterated RG-1662 ([5]; rat and human hepatocytes in vitro, improved more in human) | antidepressant effects compared with ketamine ([6]; NCGC-43 3 mg/kg vs ketamine 20 mg/kg) | sucrose preference (sucrose solution consumed as percentage of total) [6] | social interaction (percent time spent with the novel animal) [7] | efficacy in phase II clinical trials [8] | safety in phase II clinical trials [8] | half-life [9] | percent of time spent in the closed arm [10]
[2H]C([2H])([2H])c1onc(-c2ccc(F)cc2)c1COc1ccc(C(=O)N2CCS(=O)(=O)CC2)cn1 [NCGC-43, (1,1-dioxidothiomorpholino)(6-((3-(4-fluorophenyl)-5-(methyl-d3)isoxazol-4-yl)methoxy)pyridin-3-yl)methanone] | rapid and persistent effects similar to those described previously for ketamine | a decrease in the time the animals spent immobile | an increase in the latency | significant efficacy at 1 and 3 mg/kg | neither chronic stress nor injection of NCGC-43 or vehicle had any significant effects | neither chronic stress nor injection of NCGC-43 or vehicle had any significant effects | neither chronic stress nor injection of NCGC-43 or vehicle had any significant effects | mildly decreased the latency | 38.4 min | 3.9% | Stable | 100% | more metabolically stable | comparable to ketamine | restored sucrose preference in a rapid (within 24 hours) and persistent (up to 14 days) manner | restored their preference for interacting with a novel animal |  |  |  | 
Cc1onc(-c2ccc(F)cc2)c1COc1ccc(C(=O)N2CCS(=O)(=O)CC2)cn1 [RG-1662, (1,1-Dioxidothiomorpholino)(6-((3-(4-fluorophenyl)-5-methylisoxazol-4-yl)methoxy)pyridin-3-yl)methanone, reference compound] |  |  |  |  |  |  |  |  | 36 min | 3.3% |  | 83.7% |  |  |  |  | not efficacious | safe | 720 min | 
CNC1(c2ccccc2Cl)CCCCC1=O (stereo not drawn) [ketamine, reference compound] |  | a decrease in the time the animals spent immobile | an increase in the latency |  |  |  |  |  |  |  |  |  |  |  | restored sucrose preference in a rapid (within 24 hours) and persistent (up to 14 days) manner | restored their preference for interacting with a novel animal |  |  |  | increased the percent of time the rat spent in the closed arm
